Data taken from patent publication US20230285441A1, “TREATMENT OF C[…] AURANOFIN” (GEORGIA STATE UNIVERSITY RESEARCH FOUNDATION, INC., priority 2020, published 2023).

What was measured:
[1] = tested on: SARS-CoV-2 (USA-WA1/2020); assay: SARS-CoV-2 infectivity titers in cell culture supernatants by plaque assay; assay type: cell-based; details: 4 µM auranofin, Huh7 cells, 48 hours after infection
[2] = tested on: IL-6, IL-1β, TNFα and NF-kB; assay: mRNA expression of SARS-CoV-2-induced cytokines in Huh7 cells by qRT-PCR; assay type: cell-based, human
Huh7 cells = details: 0.1-10 µM for 48 hours, trypan blue
[3] = 4 µM auranofin, SARS-CoV-2 infected Huh7 cells

## CC[P](CC)(CC)=[Au][S][C@@H]1OC(COC(C)=O)[C@@H](OC(C)=O)C(OC(C)=O)C1OC(C)=O (stereo partly drawn) [auranofin, 1-Thio-β-D-glucopyranosatotriethylphosphine gold-2,3,4,6-tetraacetate]
[1]
  SARS-COV-2 infectivity titers in cell culture supernatants: significantly reduced
[2]
  increase in TNF-α levels (mRNA): absent
[2]; [3]
  increase in the expression of IL-1β (mRNA): no increase
  increase in the expression of NF-kB (mRNA): no increase
Huh7 cells
  cytotoxic concentration of 50%: approximately 5.7 µM
